# Measurements from patent US9464071B2 (priority 2010, dated 2016).
# Where “and” joins values, the source holds several entries; their conditions need not be identical. Identical values can stand only once.
row,melting point,Structure (SMILES)
1,168 °C,C#CCN(c1cc(OC)cc(OC)c1)c1ccc2ncc(-c3cnn(C)c3)nc2c1 [Compound 38]
2,80 °C,COc1cc(OC)cc(N(CCN2C[C@H](C)C[C@H](C)C2)c2ccc3ncc(-c4cnn(C)c4)nc3c2)c1 [Compound 39]
3,189 °C and 189.27 °C,COc1cc(OC)cc(N(CCCNS(C)(=O)=O)c2ccc3ncc(-c4cnn(C)c4)nc3c2)c1 [Compound 48]
4,138 °C,c1ccc(N(CC2CC2)c2ccc3ncc(-c4cn[nH]c4)nc3c2)cc1 [Compound 54]
5,163 °C and 165 °C,COc1cc(OC)cc(N(CC2CC2)c2ccc3ncc(-c4cnn(S(=O)(=O)N(C)C)c4)nc3c2)c1 [Compound 58]
6,186 °C and 186.76 °C and 187 °C,COc1cc(OC)cc(N(CC(O)CO)c2ccc3ncc(-c4cnn(C)c4)nc3c2)c1 (stereo not drawn) [Compound 75]
7,162 °C and 162.1 °C,COc1cc(OC)cc(N(CC(C)(C)O)c2ccc3ncc(-c4cnn(C)c4)nc3c2)c1 [Compound 78]
8,144 °C,COc1cc(OC)cc(N(C/C(C)=N/O)c2ccc3ncc(-c4cnn(C)c4)nc3c2)c1 [Compound 80]
9,199 °C,COc1cc(OC)cc(N(C/C(C)=N\O)c2ccc3ncc(-c4cnn(C)c4)nc3c2)c1 [Compound 81]
10,126.66 °C and 126 °C,COc1cc(OC)cc(N(C[C@@H]2C[C@H]2CO)c2ccc3ncc(-c4cnn(C)c4)nc3c2)c1 [Compound 89]
11,175.51 °C and 178 °C,"COc1cc(OC)cc(N(CCCN)c2ccc3ncc(-c4cnn(C)c4)nc3c2)c1 [Compound 93, N-(3,5-Dimethoxyphenyl)-N-[3-(1-methyl-1H-pyrazol-4-yl)quinoxalin-6-yl]propane-1,3-diamine]"
12,186 °C,COc1cc(OC)cc(N(Cc2nccn2C)c2ccc3ncc(-c4cnn(C)c4)nc3c2)c1 [Compound 101]
13,202.94 °C,COc1cc(OC)cc(N(CCC#N)c2ccc3ncc(-c4cnn(C)c4)nc3c2)c1 [Compound 122]
14,99 °C and 99.31 °C,COc1cc(OC)cc(N(CC(O)CN)c2ccc3ncc(-c4cnn(C)c4)nc3c2)c1 (stereo not drawn) [Compound 125]
15,132.47 °C,"COc1cc(OC)cc(N(CCCN2CCCC2=O)c2ccc3ncc(-c4cnn(C)c4)nc3c2)c1 [Compound 132, 1-(3-{(3,5-Dimethoxyphenyl)[3-(1-methyl-1H-pyrazol-4-yl)quinoxalin-6-yl]amino}propyl)pyrrolidin-2-one]"
16,126.47 °C,"COc1cc(OC)cc(N(CCN2CC[C@H](C#N)C2)c2ccc3ncc(-c4cnn(C)c4)nc3c2)c1 [Compound 133, (3S)-1-(2-{(3,5-Dimethoxyphenyl)[3-(1-methyl-1H-pyrazol-4-yl)quinoxalin-6-yl]amino}ethyl)pyrrolidine-3-carbonitrile]"
17,123.19 °C,"COc1cc(OC)cc(N(CCNCCC#N)c2ccc3ncc(-c4cnn(C)c4)nc3c2)c1 [Compound 140, 3-[(2-{(3,5-Dimethoxyphenyl)[3-(1-methyl-1H-pyrazol-4-yl)quinoxalin-6-yl]amino}ethyl)amino]propanenitrile]"
18,150 °C,"COc1cc(OC)cc(N(CCC(C)(C)O)c2ccc3ncc(-c4cnn(C)c4)nc3c2)c1 [Compound 141, 4-{(3,5-Dimethoxyphenyl)[3-(1-methyl-1H-pyrazol-4-yl)quinoxalin-6-yl]amino}-2-methylbutan-2-ol]"
19,184.72 °C,"COc1cc(OC)cc(N(CCN2CCN(C(C)=O)CC2)c2ccc3ncc(-c4cnn(C)c4)nc3c2)c1 [Compound 143, N-[2-(4-Acetylpiperazin-1-yl)ethyl]-N-(3,5-dimethoxyphenyl)-3-(1-methyl-1H-pyrazol-4-yl)quinoxalin-6-amine]"
20,163 °C,"COc1cc(OC)cc(N(Cc2cnccn2)c2ccc3ncc(-c4cnn(C)c4)nc3c2)c1 [Compound 146, N-(3,5-Dimethoxyphenyl)-3-(1-methyl-1H-pyrazol-4-yl)-N-(pyrazin-2-ylmethyl)quinoxalin-6-amine]"
21,166.2 °C,Cn1cc(-c2ccc3ncc(N(CC4CC4)c4cccc(OC(F)F)c4)nc3c2)cn1 [Compound 209]
